{
  "source": "BindingDB's records for doi:10.1016/s0960-894x(01)00095-6",
  "about": "(Seoul National University, 2001)",
  "data": [
    {"target": "Isoleucine--tRNA ligase (Escherichia coli) (UniProt P00956)", "sequence (P00956 whole entry, looked up)": "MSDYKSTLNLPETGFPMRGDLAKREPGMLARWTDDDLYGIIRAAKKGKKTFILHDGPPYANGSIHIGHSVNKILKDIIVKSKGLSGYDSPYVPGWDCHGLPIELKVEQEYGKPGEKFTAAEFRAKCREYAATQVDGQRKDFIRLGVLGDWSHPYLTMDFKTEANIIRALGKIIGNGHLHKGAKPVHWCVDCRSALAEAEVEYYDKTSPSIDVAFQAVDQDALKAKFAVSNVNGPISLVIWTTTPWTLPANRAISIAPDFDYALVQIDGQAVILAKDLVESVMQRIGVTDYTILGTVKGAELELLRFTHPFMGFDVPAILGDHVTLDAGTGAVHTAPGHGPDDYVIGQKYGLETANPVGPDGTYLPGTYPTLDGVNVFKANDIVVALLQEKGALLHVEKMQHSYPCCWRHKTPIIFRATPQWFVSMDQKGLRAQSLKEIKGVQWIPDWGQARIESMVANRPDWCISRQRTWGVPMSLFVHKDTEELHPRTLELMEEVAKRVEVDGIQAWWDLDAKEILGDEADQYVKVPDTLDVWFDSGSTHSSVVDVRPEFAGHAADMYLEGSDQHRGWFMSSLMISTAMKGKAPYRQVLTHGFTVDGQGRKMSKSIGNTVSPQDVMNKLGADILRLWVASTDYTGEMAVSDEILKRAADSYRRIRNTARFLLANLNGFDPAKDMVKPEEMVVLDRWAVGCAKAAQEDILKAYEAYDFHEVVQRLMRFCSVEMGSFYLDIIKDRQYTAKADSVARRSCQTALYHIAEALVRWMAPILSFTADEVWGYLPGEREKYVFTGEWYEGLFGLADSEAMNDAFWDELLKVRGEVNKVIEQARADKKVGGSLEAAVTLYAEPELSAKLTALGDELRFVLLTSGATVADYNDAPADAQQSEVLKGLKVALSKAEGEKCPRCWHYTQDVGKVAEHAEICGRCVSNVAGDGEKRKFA", "experiment": "Inhibition of [3H]isoleucyl incorporation by Escherichia coli isoleucyl-tRNA synthetase (IleRS)", "units": {"IC50": "µM"}, "values": [
      {"smiles": "CC[C@H](C)[C@H](N)C(=O)N(O)C[C@H]1O[C@@H](Cn2cnc3c(N)ncnc32)[C@H](O)[C@@H]1O", "note": "[(1S,2S)-1-{[(2R,3S,4R,5S)-5-(6-Amino-purin-9-ylmethyl)-3,4-dihydroxy-tetrahydro-furan-2-ylmethyl]-hydroxy-carbamoyl}-2-methyl-butyl-ammonium]", "IC50": "> 128"},
      {"smiles": "CC[C@H](C)[C@H](N)C(=O)N(O)C[C@H]1O[C@@H](CCn2nnc(-c3ccccc3)n2)[C@H](O)[C@@H]1O", "note": "[(1S,2S)-1-({(2R,3S,4R,5S)-3,4-Dihydroxy-5-[2-(5-phenyl-tetrazol-2-yl)-ethyl]-tetrahydro-furan-2-ylmethyl}-hydroxy-carbamoyl)-2-methyl-butyl-ammonium]", "IC50": "> 128"},
      {"smiles": "CC[C@H](C)[C@H](N)C(=O)OC[C@H]1O[C@@H](CCn2cnc3c(NCc4ccccc4)ncnc32)[C@H](O)[C@@H]1O", "note": "[(1S,2S)-1-{(2R,3S,4R,5S)-5-[2-(6-Benzylamino-purin-9-yl)-ethyl]-3,4-dihydroxy-tetrahydro-furan-2-ylmethoxycarbonyl}-2-methyl-butyl-ammonium]", "IC50": 84},
      {"smiles": "CC[C@H](C)[C@H](N)C(=O)OC[C@H]1O[C@@H](n2cnc3c(N)ncnc32)[C@H](O)[C@@H]1O", "note": "[(1S,2S)-1-[(2R,3S,4R,5R)-5-(6-Amino-purin-9-yl)-3,4-dihydroxy-tetrahydro-furan-2-ylmethoxycarbonyl]-2-methyl-butyl-ammonium]", "IC50": 183},
      {"smiles": "CC[C@H](C)[C@H](N)C(=O)OC[C@H]1O[C@@H](Cn2cnc3c(N)ncnc32)[C@H](O)[C@@H]1O", "note": "[(1S,2S)-1-[(2R,3S,4R,5S)-5-(6-Amino-purin-9-ylmethyl)-3,4-dihydroxy-tetrahydro-furan-2-ylmethoxycarbonyl]-2-methyl-butyl-ammonium]", "IC50": "> 128"},
      {"smiles": "CC[C@H](C)[C@H](N)C(=O)N(O)C[C@H]1O[C@@H](n2cnc3c(N)ncnc32)[C@H](O)[C@@H]1O", "note": "[(1S,2S)-1-{[(2R,3S,4R,5R)-5-(6-Amino-purin-9-yl)-3,4-dihydroxy-tetrahydro-furan-2-ylmethyl]-hydroxy-carbamoyl}-2-methyl-butyl-ammonium]", "IC50": 181},
      {"smiles": "CC[C@H](C)[C@H](N)C(=O)N(O)C[C@H]1O[C@@H](CCn2cnc3c(N)ncnc32)[C@H](O)[C@@H]1O", "note": "[(1S,2S)-1-({(2R,3S,4R,5S)-5-[2-(6-Amino-purin-9-yl)-ethyl]-3,4-dihydroxy-tetrahydro-furan-2-ylmethyl}-hydroxy-carbamoyl)-2-methyl-butyl-ammonium]", "IC50": "> 128"},
      {"smiles": "CC[C@H](C)[C@H](N)C(=O)OC[C@H]1O[C@@H](CCn2cnc3c(N)ncnc32)[C@H](O)[C@@H]1O", "note": "[(1S,2S)-1-{(2R,3S,4R,5S)-5-[2-(6-Amino-purin-9-yl)-ethyl]-3,4-dihydroxy-tetrahydro-furan-2-ylmethoxycarbonyl}-2-methyl-butyl-ammonium]", "IC50": "> 128"},
      {"smiles": "CC[C@H](C)[C@H](N)C(=O)N(O)C[C@H]1O[C@@H](CCn2cnc3c(NCc4ccccc4)ncnc32)[C@H](O)[C@@H]1O", "note": "[(1S,2S)-1-({(2R,3S,4R,5S)-5-[2-(6-Benzylamino-purin-9-yl)-ethyl]-3,4-dihydroxy-tetrahydro-furan-2-ylmethyl}-hydroxy-carbamoyl)-2-methyl-butyl-ammonium]", "IC50": "> 128"},
      {"smiles": "CC[C@H](C)[C@H](N)C(=O)OC[C@H]1O[C@@H](CCn2nnc(-c3ccccc3)n2)[C@H](O)[C@@H]1O", "note": "[(1S,2S)-1-{(2R,3S,4R,5S)-3,4-Dihydroxy-5-[2-(5-phenyl-tetrazol-2-yl)-ethyl]-tetrahydro-furan-2-ylmethoxycarbonyl}-2-methyl-butyl-ammonium]", "IC50": 63.6}
    ]},
    {"target": "Methionine--tRNA ligase (Escherichia coli) (UniProt P00959)", "sequence (P00959 whole entry, looked up)": "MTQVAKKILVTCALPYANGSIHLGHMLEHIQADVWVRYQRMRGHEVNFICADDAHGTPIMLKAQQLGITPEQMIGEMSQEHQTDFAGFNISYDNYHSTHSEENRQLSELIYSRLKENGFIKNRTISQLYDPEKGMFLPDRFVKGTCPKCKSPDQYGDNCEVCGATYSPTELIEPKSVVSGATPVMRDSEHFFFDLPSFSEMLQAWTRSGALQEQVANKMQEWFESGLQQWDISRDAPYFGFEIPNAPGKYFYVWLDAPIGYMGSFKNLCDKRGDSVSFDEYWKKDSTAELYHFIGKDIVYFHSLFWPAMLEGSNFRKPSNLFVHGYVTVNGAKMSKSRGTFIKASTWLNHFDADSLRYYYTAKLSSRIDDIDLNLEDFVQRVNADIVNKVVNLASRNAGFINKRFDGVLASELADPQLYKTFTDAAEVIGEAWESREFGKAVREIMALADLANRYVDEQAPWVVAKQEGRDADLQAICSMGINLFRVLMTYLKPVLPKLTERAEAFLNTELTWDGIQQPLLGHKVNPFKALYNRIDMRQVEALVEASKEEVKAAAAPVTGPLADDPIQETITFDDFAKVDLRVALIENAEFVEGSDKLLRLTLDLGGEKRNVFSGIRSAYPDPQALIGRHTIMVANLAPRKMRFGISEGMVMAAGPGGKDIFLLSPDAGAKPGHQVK", "experiment": "Inhibition of [35S]methionyl incorporation by Escherichia coli methionyl-tRNA synthetase (MetRS)", "units": {"IC50": "µM"}, "values": [
      {"smiles": "CSCC[C@H](N)C(=O)N(O)C[C@H]1O[C@@H](CCn2nnc(-c3ccccc3)n2)[C@H](O)[C@@H]1O", "note": "[(S)-1-({(2R,3S,4R,5S)-3,4-Dihydroxy-5-[2-(5-phenyl-tetrazol-2-yl)-ethyl]-tetrahydro-furan-2-ylmethyl}-hydroxy-carbamoyl)-3-methylsulfanyl-propyl-ammonium]", "IC50": 34},
      {"smiles": "CSCC[C@H](N)C(=O)N(O)C[C@H]1O[C@@H](Cn2cnc3c(N)ncnc32)[C@H](O)[C@@H]1O", "note": "[(S)-1-{[(2R,3S,4R,5S)-5-(6-Amino-purin-9-ylmethyl)-3,4-dihydroxy-tetrahydro-furan-2-ylmethyl]-hydroxy-carbamoyl}-3-methylsulfanyl-propyl-ammonium]", "IC50": 26},
      {"smiles": "CSCC[C@H](N)C(=O)OC[C@H]1O[C@@H](CCn2cnc3c(N)ncnc32)[C@H](O)[C@@H]1O", "note": "[(S)-1-{(2R,3S,4R,5S)-5-[2-(6-Amino-purin-9-yl)-ethyl]-3,4-dihydroxy-tetrahydro-furan-2-ylmethoxycarbonyl}-3-methylsulfanyl-propyl-ammonium]", "IC50": 8.3},
      {"smiles": "CSCC[C@H](N)C(=O)N(O)C[C@H]1O[C@@H](CCn2cnc3c(N)ncnc32)[C@H](O)[C@@H]1O", "note": "[(S)-1-({(2R,3S,4R,5S)-5-[2-(6-Amino-purin-9-yl)-ethyl]-3,4-dihydroxy-tetrahydro-furan-2-ylmethyl}-hydroxy-carbamoyl)-3-methylsulfanyl-propyl-ammonium]", "IC50": 56},
      {"smiles": "CSCC[C@H](N)C(=O)N(O)C[C@H]1O[C@@H](Cn2cnc3c(NCc4ccccc4)ncnc32)[C@H](O)[C@@H]1O", "note": "[(S)-1-{[(2R,3S,4R,5S)-5-(6-Benzylamino-purin-9-ylmethyl)-3,4-dihydroxy-tetrahydro-furan-2-ylmethyl]-hydroxy-carbamoyl}-3-methylsulfanyl-propyl-ammonium]", "IC50": 63},
      {"smiles": "CSCC[C@H](N)C(=O)N(O)C[C@H]1O[C@@H](CCn2cnc3c(NCc4ccccc4)ncnc32)[C@H](O)[C@@H]1O", "note": "[(S)-1-({(2R,3S,4R,5S)-5-[2-(6-Benzylamino-purin-9-yl)-ethyl]-3,4-dihydroxy-tetrahydro-furan-2-ylmethyl}-hydroxy-carbamoyl)-3-methylsulfanyl-propyl-ammonium]", "IC50": 23},
      {"smiles": "CSCC[C@H](N)C(=O)OC[C@H]1O[C@@H](CCn2cnc3c(NCc4ccccc4)ncnc32)[C@H](O)[C@@H]1O", "note": "[(S)-1-{(2R,3S,4R,5S)-5-[2-(6-Benzylamino-purin-9-yl)-ethyl]-3,4-dihydroxy-tetrahydro-furan-2-ylmethoxycarbonyl}-3-methylsulfanyl-propyl-ammonium]", "IC50": 33.2},
      {"smiles": "CSCC[C@H](N)C(=O)OC[C@H]1O[C@@H](Cn2cnc3c(NCc4ccccc4)ncnc32)[C@H](O)[C@@H]1O", "note": "[(S)-1-[(2R,3S,4R,5S)-5-(6-Benzylamino-purin-9-ylmethyl)-3,4-dihydroxy-tetrahydro-furan-2-ylmethoxycarbonyl]-3-methylsulfanyl-propyl-ammonium]", "IC50": 16.5},
      {"smiles": "CSCC[C@H](N)C(=O)OC[C@H]1O[C@@H](CCn2nnc(-c3ccccc3)n2)[C@H](O)[C@@H]1O", "note": "[(S)-1-{(2R,3S,4R,5S)-3,4-Dihydroxy-5-[2-(5-phenyl-tetrazol-2-yl)-ethyl]-tetrahydro-furan-2-ylmethoxycarbonyl}-3-methylsulfanyl-propyl-ammonium]", "IC50": "> 256"},
      {"smiles": "CSCC[C@H](N)C(=O)OC[C@H]1O[C@@H](Cn2cnc3c(N)ncnc32)[C@H](O)[C@@H]1O", "note": "[(S)-1-[(2R,3S,4R,5S)-5-(6-Amino-purin-9-ylmethyl)-3,4-dihydroxy-tetrahydro-furan-2-ylmethoxycarbonyl]-3-methylsulfanyl-propyl-ammonium]", "IC50": 3.6},
      {"smiles": "CSCC[C@H](N)C(=O)N(O)C[C@H]1O[C@@H](Cn2nnc(-c3ccccc3)n2)[C@H](O)[C@@H]1O", "note": "[(S)-1-{[(2R,3S,4R,5S)-3,4-Dihydroxy-5-(5-phenyl-tetrazol-2-ylmethyl)-tetrahydro-furan-2-ylmethyl]-hydroxy-carbamoyl}-3-methylsulfanyl-propyl-ammonium]", "IC50": 17},
      {"smiles": "CSCC[C@H](N)C(=O)OC[C@H]1O[C@@H](n2cnc3c(N)ncnc32)[C@H](O)[C@@H]1O", "note": "[(S)-1-[(2R,3S,4R,5R)-5-(6-Amino-purin-9-yl)-3,4-dihydroxy-tetrahydro-furan-2-ylmethoxycarbonyl]-3-methylsulfanyl-propyl-ammonium]", "IC50": 5},
      {"smiles": "CSCC[C@H](N)C(=O)OC[C@H]1O[C@@H](Cn2nnc(-c3ccccc3)n2)[C@H](O)[C@@H]1O", "note": "[(S)-1-[(2R,3S,4R,5S)-3,4-Dihydroxy-5-(5-phenyl-tetrazol-2-ylmethyl)-tetrahydro-furan-2-ylmethoxycarbonyl]-3-methylsulfanyl-propyl-ammonium]", "IC50": 12.2},
      {"smiles": "CSCC[C@H](N)C(=O)N(O)C[C@H]1O[C@@H](n2cnc3c(N)ncnc32)[C@H](O)[C@@H]1O", "note": "[(S)-1-{[(2R,3S,4R,5R)-5-(6-Amino-purin-9-yl)-3,4-dihydroxy-tetrahydro-furan-2-ylmethyl]-hydroxy-carbamoyl}-3-methylsulfanyl-propyl-ammonium]", "IC50": 27}
    ]}
  ]
}
